pIC50, pKi: −log10 of the molar value.
Columns and labels:
[1] = target: benzodiazepine binding site; assay: Inhibition of [3H]-flunitrazepam by 2′ flavonoid derivatives (Example 7)
[2] = tested on: benzodiazepine site on GABAA receptor; assay: GABA shift experiment, [3H]-Ro15-1788 competition with/without 10 μM GABA; format: binding, rat
BZD-S = assay: Radio-receptor binding assay, [3H]flunitrazepam, forebrain crude synaptosomal fraction (Example 3); parameters: species or system Sprague-Dawley rats; settings: 1 nM [3H]flunitrazepam, rat forebrain; read-out: Inhibition of 3H-Flunitrazepam Ki
mice [3] = assay: Hole-board test; format: in vivo, Male ICR mice; parameters: Time spent head-dipping: unit not given here
mice [4] = assay: Elevated plus-maze test; format: in vivo, Male ICR mice
mice [5] = assay: Horizontal wire test; format: in vivo, Male ICR mice
[6] = target: benzodiazepine site (BZD-S) of the GABAA receptor
[7] = tested on: benzodiazepine site (BZD-S) of the GABAA receptor; assay: Radioligand receptor binding, displacement of [3H]-flunitrazepam (Example 1)
benzodiazepine site [8] = settings: 10^-4 M GABA, rat cerebral cortex membranes; cited from earlier work
benzodiazepine site [9] = settings: 10^-5 M muscimol, rat cerebellar membranes; cited from earlier work
[10] = 1 mg/kg oral, time cell empty (1 hour), 5-min test
[11] = 5 mg/kg oral, time cell empty (1 hour), 5-min test
[12] = 1 mg/kg oral, time cell empty, 5-min test
[13] = 5 mg/kg oral, time cell empty, 5-min test

## COc1ccc2oc(-c3ccccc3N)cc(=O)c2c1 [2′-amino, 6-methoxyflavone]
[1]
  pIC50: 5.70

## COc1c(O)c(OC)c2oc(-c3ccccc3O)cc(=O)c2c1O [Compound 1, 5,7,2′-trihydroxy-6,8-dimethoxyflavone]
[2]; IC50 without GABA / IC50 with 10 μM GABA, 1 nM [3H]-Ro15-1788
  GABA ratio: 1.20
BZD-S
  pKi: 8.96
Mice [3]; 1 mg/kg oral, 20 min
  Number of head dips: 13.56 ± 1.81
  Number of rearings: 24.19 ± 3.53
  Time spent head-dipping: 15.38 ± 1.59
Mice [3]; 1 mg/kg oral, 60 min
  Number of head dips: 15.75 ± 2.53
  Number of rearings: 23.94 ± 2.34
  Time spent head-dipping: 16.75 ± 3.78
Mice [3]; 2 mg/kg oral, 20 min
  Number of head dips: 13.13 ± 1.96
  Number of rearings: 22.06 ± 3.17
  Time spent head-dipping: 14.56 ± 2.04
Mice [3]; 2 mg/kg oral, 60 min
  Number of head dips: 14.50 ± 2.73
  Number of rearings: 22.13 ± 2.46
  Time spent head-dipping: 15.13 ± 2.20
Mice [3]; 4 mg/kg acute, twenty minutes after dosage
  number of head-dips, time spent head-dipping and number of rearings: significant increase
Mice [3]; 4 mg/kg oral, 20 min
  Number of head dips: 20.25 ± 1.42
  Number of rearings: 29.54 ± 2.09
  Time spent head-dipping: 23.35 ± 1.28
Mice [3]; 4 mg/kg oral, 60 min
  Number of head dips: 16.95 ± 1.33
  Number of rearings: 27.56 ± 2.79
  Time spent head-dipping: 17.56 ± 1.20
Mice [3]; 8 mg/kg oral, 20 min
  Number of head dips: 18.46 ± 3.65
  Number of rearings: 25.26 ± 2.74
  Time spent head-dipping: 19.55 ± 4.23
Mice [3]; 8 mg/kg oral, 60 min
  Number of head dips: 15.72 ± 1.86
  Number of rearings: 23.75 ± 3.18
  Time spent head-dipping: 15.06 ± 1.98
Mice [3]; mouse, in vivo
  sedative effects (decrease in head-dips, time head-dipping, rearings): lack of sedative effects
Mice [4]; 1 mg/kg oral, 20 min
  % of entries into open arms: 18.39 ± 3.14%
  % of time spent in open arms: 14.28 ± 2.36%
Mice [4]; 1 mg/kg oral, 60 min
  % of entries into open arms: 18.51 ± 3.34%
  % of time spent in open arms: 15.80 ± 3.29%
Mice [4]; 2 mg/kg oral, 20 min
  % of entries into open arms: 18.30 ± 2.78%
  % of time spent in open arms: 15.74 ± 3.00%
Mice [4]; 2 mg/kg oral, 60 min
  % of entries into open arms: 16.91 ± 2.49%
  % of time spent in open arms: 16.84 ± 1.99%
Mice [4]; 4.0 mg/kg
  anxiolysis compared to either dosage of diazepam: more anxiolysis
Mice [4]; 4 mg/kg oral, 20 min
  % of entries into open arms: 32.28 ± 2.91 %
  % of time spent in open arms: 33.55 ± 2.09 %
Mice [4]; 4 mg/kg oral, 60 min
  % of entries into open arms: 19.90 ± 1.63%
  % of time spent in open arms: 15.69 ± 2.09%
Mice [4]; 8 mg/kg oral, 20 min
  % of entries into open arms: 28.90 ± 2.23 %
  % of time spent in open arms: 25.62 ± 1.73 %
Mice [4]; 8 mg/kg oral, 60 min
  % of entries into open arms: 18.67 ± 2.24%
  % of time spent in open arms: 16.76 ± 2.19%
Mice [4]; 4.0 and 8.0 mg/kg, twenty minutes after dosage
  time spent in open arms and entries made into open arms vs control: significant increase
Mice [5]; K36 dosage regimen 1.0-8.0 mg/kg
  ability to grasp the wire: remained unchanged
[6]
  pKi: 8.96
[7]; Compound 1 vs Compound 6 (K1)
  fold difference in binding affinity: 260 fold
[7]; read-out: Inhibition of 3H-Flunitrazepam IC50, 1 nM [3H]-flunitrazepam, rat whole brain synaptosomal membrane
  pIC50: 8.82

## CN1C(=O)CN=C(c2ccccc2)c2cc(Cl)ccc21 [Diazepam, reference compound]
[2]; 10^-5 M GABA, rat cerebral cortex membranes
  GABA ratio (IC50 ratio without GABA/with GABA), column C: 2.0
BZD-S
  pKi: 8.02
Mice [3]; [10]
  Number of head dips: 19.12 ± 2.92
  Number of rearings: 25.13 ± 2.85
  Time spent head-dipping: 22.75 ± 2.59
Mice [3]; [11]
  Number of head dips: 17.25 ± 1.89
  Number of rearings: 32.16 ± 3.15
  Time spent head-dipping: 19.50 ± 2.33
Mice [3]; at the dosage regimen
  sedative effects (decrease in head-dips, time head-dipping, rearings): lack of sedative effects
Mice [4]; [12]
  % of entries into open arms: 26.48 ± 2.83 %
  % of time spent in open arms: 28.71 ± 2.27 %
Mice [4]; [13]
  % of entries into open arms: 29.85 ± 1.29 %
  % of time spent in open arms: 32.24 ± 1.56 %
Mice [4]; 1.0 and 5.0 mg/kg
  time spent in open arms and entries made into open arms vs control: dose dependent increase
Mice [5]; 5.0 mg/kg
  ability to grasp the wire compared to control: significant impairment
Benzodiazepine site [8]
  GABA ratio (IC50 ratio without GABA/with GABA), column A: 2.9
Benzodiazepine site [9]
  GABA ratio (IC50 ratio without GABA/with GABA), column B: 2.3
